# ChEMBL document CHEMBL1201862, “PubChem BioAssay data set” (2004)
# Active and inactive are the calls of the source.
# Tests used:
# [1] = ARNT/TACC3 interaction disruptors, potency, confirmation, biochemical, AlphaScreen, cherry-picked samples (AID 651703); assay type: functional, Homo sapiens;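 further: His-tagged ARNT PAS-B domain paired with GST-TACC3 E629A dimer coactivator fragment; potency of inhibitors that break up the complex and lower AlphaScreen signal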
# [2] = HEK293 cell cytotoxicity, dose response, cytotoxicity control, cherry-picks, set 5 (AID 1053117); assay type: functional, cell-based
# [3] = inhibitors of clade B AD8 Env fusion, dose response, cell-based, cherry-pick (AID 652062); assay type: functional;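 further: luciferase signal from cell-cell fusion driven by HIV-1 clade B AD8 Env; potency is for inhibitors of fusion seen as a drop in luminescence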
# [4] = inhibitors of HIV Env-driven cell fusion, dose response, cherry-pick (AID 652057); assay type: functional, cell-based
# [5] = CEM21 lymphoblast cell cytotoxicity, dose response, cytotoxicity control for viral fusion inhibitor project, CellTiter-Glo luminescence, cherry-picked (AID 652042); assay type: functional, cell-based;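 further: potency for signal decrease meaning cytotoxicity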
# [6] = target: Nuclear receptor subfamily 0 group B member 1 (Homo sapiens, UniProt P51843); assay type: functional, cell-based;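 further: HEK293T cells transfected with SF-1 and DAX-1 plus StAR promoter luciferase reporter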
# cells [7] = assay type: functional, cell-based
# HEK293 [8] = assay: NOD1 signaling inhibitors, primary screen, cell-based, luminescence, uHTS (AID 1578); assay type: functional; settings: Homo sapiens
# HEK293 [9] = assay: NOD2 signaling inhibitors in MDP-stimulated cells, cell-based, uHTS, luminescence (AID 2001); assay type: functional; settings: Homo sapiens
# [10] = target: T1, Beta-2 adrenergic receptor (Homo sapiens, UniProt P07550); assay: beta2AR agonists driving receptor internalization, dose response, cell-based, FAP fluorogen, flow cytometry, cherry pick 1 (AID 588763); assay type: functional
# HEK293 [11] = assay: cells; assay type: functional, cell-based; settings: Homo sapiens
# [12] = target: T1, Beta-2 adrenergic receptor; assay: Dose response for HTS for Beta-2AR agonists via FAP method from Powderset3.; assay type: functional
# HEK293 [13] = assay: cells; assay type: functional, cell-based; settings: Homo sapiens; remark: listed apart in the source
# Vero [14] = assay: cells; assay type: functional; settings: Chlorocebus sabaeus
# [15] = C. albicans growth with fluconazole, confirmation, fluorescence, retest (AID 2467); assay type: functional, cell-based
# [16] = Counterscreen for activators of the function of SWI/SNF related, matrix associated, actin dependent regulator of chromatin, subfamily a, member 2 (SMARCA2, BRM): Luminescence-based cell-based high throughput dose response assay to identify non-selective compounds using the VP16 reporter assay.; assay type: functional
# [17] = NIH-3T3 fibroblast cytotoxicity, dose response, cytotoxicity control, cell-based, fluorescence, Alamar Blue, secondary assay (AID 2327); assay type: functional;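 further: NIH-3T3 mouse fibroblasts cultured with fluconazole at 8 µg/mL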
# [18] = target: SWI/SNF-related matrix-associated actin-dependent regulator of chromatin subfamily A member 2 (Homo sapiens, UniProt P51531); assay: Luminescence-based cell-based high throughput dose response assay to identify activators of the function of SWI/SNF related, matrix associated, actin dependent regulator of chromatin, subfamily a, member 2 (SMARCA2, BRM).; assay type: functional
# Vero [19] = assay: cells; assay type: functional, cell-based; settings: Chlorocebus sabaeus
# [20] = target: T2, Methionyl-tRNA synthetase, putative (Trypanosoma brucei brucei, UniProt Q38C91); assay type: functional, Trypanosoma brucei brucei strain 927/4 GUTat10.1
# [21] = target: T2, Methionyl-tRNA synthetase, putative; assay type: functional, Trypanosoma brucei brucei strain 927/4 GUTat10.1; remark: listed apart in the source
# [22] = Counterscreen for inhibitors of Trypanosoma brucei methionyl tRNA synthetase (MetRS): Luminescence-based cell-based high throughput dose response assay to identify compounds that are cytotoxic to Jurkat human T lymphocyte cells.; assay type: functional
# HEK293 [23] = assay: HEK293T cell cytotoxicity, dose response, cytotoxicity control, ATP luminescence, cherry-pick samples (AID 687005); assay type: functional, cell-based; settings: Homo sapiens;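 further: cells exposed to compound for 48 hours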
# [24] = HEK293 Cytotoxicity Assay Measured in Cell-Based System Using Plate Reader - 7071-01_Inhibitor_Dose_CherryPick_Activity_Set2.; assay type: functional
# [25] = LGR2 antagonists, dose response, cell-based, HEK293, CRE-luciferase reporter, cherry pick (AID 743342); assay type: functional
# [26] = MC4R antagonists, dose response, counter-screen for LGR2 antagonist project, cell-based, plate reader, cherry pick (AID 743444); assay type: functional;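 further: transfected HEK 293 cells stimulated with alpha-MSH peptide; potency of inhibitors of the alpha-MSH evoked signal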
# [27] = A549 cell cytotoxicity, dose response, cytotoxicity control, plate reader, cherry-pick, antagonist series (AID 743412); assay type: functional, cell-based
# [28] = ADAM10 inhibitors, peptide cleavage, dose response, biochemical, QFRET (AID 743254);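 further: ADAM10 enzyme with the DM2 quenched FRET peptide as substrate; EDANS fluorescence gain as the protease cuts the substrate; inhibitor potency against ADAM10 proteolytic activity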
# [29] = target: Disintegrin and metalloproteinase domain-containing protein 17 (Homo sapiens, UniProt P78536); assay: ADAM17 protease inhibitors, dose response, counter-screen for ADAM10 exosite inhibitor project, biochemical, quenched FRET substrate (AID 743253)
# [30] = target: T3, Sentrin-specific protease 1 (Homo sapiens, UniProt Q9P0U3); assay: potency of human SENP1 inhibitors, dose response, biochemical, kinetic FRET (AID 651697); assay type: functional; settings: read-out: IC50_Mean
# [31] = target: T3, Sentrin-specific protease 1; assay: Dose response confirmation of small molecule inhibitors of the catalytic domain of the SUMO protease, SENP1 in a FRET assay.; assay type: functional; settings: read-out: IC50_Mean
# cells [32] = assay: cells
# Major prion protein = Major prion protein (Homo sapiens, UniProt P04156); assay type: functional, cell-based
smiles,measurement,setting,value
O=c1oc2ccccc2c(O)c1/C=N/Cc1ccccn1,AC50,[1],109 µM (active)
COc1cccc(-c2ccc3c(c2)[C@H]2[C@H](CCN2S(=O)(=O)c2cccc(OC)c2)[C@H](CO)N3)c1,AC50,[2],26.9 µM (active)
C[C@H](CO)N1C[C@H](C)[C@H](CN(C)S(=O)(=O)c2ccccc2)Oc2cc(Br)ccc2S1(=O)=O,AC50,[3],38.6 µM (active)
same,AC50,[4],4.68 µM (active)
same,AC50,[5],53.4 µM (active)
O=[N+]([O-])c1ccc(COc2ccc(CN3CCOCC3)cc2)cc1,IC50,[6],> 67.5 µM (inactive)
same,IC50,cells [7],> 67.5 µM (inactive)
Cn1c(N2CCN(c3ccccn3)CC2)nc2c1c(=O)n(Cc1ccc(Cl)cc1)c(=O)n2C,EC50,HEK293 [8],6.92 µM (active)
same,IC50,HEK293 [9],6 µM (active)
same,EC50,[10],0.081 µM (active)
same,IC50,HEK293 [11],7.19 µM (active)
same,EC50,[12],0.0074 µM (active)
same,IC50,HEK293 [13],10.9 µM (active)
O=C(Nc1ccccc1Cl)c1ccc([N+](=O)[O-])o1,CC50,Vero [14],12.2 µM (active)
same,EC50,[15],1.64 µM (active)
same,EC50,[16],> 91.2 µM (inactive)
same,EC50,[17],> 160 µM (inactive)
same,EC50,[18],> 91.2 µM (inactive)
same,IC50,Vero [19],> 25 µM (active)
Cc1ccccc1-c1c[nH]c(C(O)c2cc(Cl)cc(Cl)c2)n1 (stereo not drawn),IC50,[20],8.47 µM (active)
same,IC50,[21],5.56 µM (active)
same,IC50,[22],83.3 µM (inactive)
O=C(N[C@@H]1CC[C@@H](CCn2cc(-c3ccccc3)nn2)O[C@H]1CO)c1cnccn1,AC50,HEK293 [23],21.8 µM (active)
same,AC50,[24],21.8 µM (active)
C[C@H](CO)N1C[C@H](C)[C@H](CN(C)C(=O)Nc2cccc3ccccc23)OCCCC[C@H](C)Oc2ccc(NC(=O)c3ccccc3)cc2C1=O,AC50,[25],4.88 µM (active)
same,AC50,[26],52.5 µM (active)
same,AC50,[27],48 µM (active)
Nc1[nH]c(C(=O)c2ccccc2)c(-c2cccc(C(F)(F)F)c2)c1C(=O)NCCc1c[nH]c2ccccc12,IC50,[28],> 7.73 µM (active)
same,IC50,[29],> 69.6 µM (inactive)
CC/N=c1\scc(-c2cccs2)n1/N=C/c1cc(OC)ccc1O,IC50,[30],18.6 µM (active)
same,IC50,[31],15.8 µM (active)
CCc1ccc(-c2nc3ccc(Br)cc3c(C(=O)O)c2C)s1,IC50,cells [32],> 138 µM (inactive)
same,IC50,Major prion protein,1.24 µM (active)
